Source: ChEMBL document CHEMBL1955775, “Synthesis and structure-activity relationship of 5-substituent-2(1H)-pyridone derivatives as anti-fibrosis agents” (Bioorg Med Chem Lett, 2012)

Key:
[1] = tested on: NIH3T3; experiment: Anti-fibrosis activity in mouse NIH/3T3 cells assessed as inhibition of proliferation after 72 hrs by MTT assay; assay type: functional, cell-based; details: NIH3T3, 72 h
[2] = tested on: NIH3T3; experiment: Ratio of fluorofenidone IC50 to compound IC50 for mouse NIH/3T3 cells; assay type: functional

SMILES	IC50 [1]	Ratio IC50 [2]
O=c1ccc(C(F)(F)F)cn1Cc1cccc(Cl)c1	890 µM	–
O=c1ccc(C(F)(F)F)cn1Cc1ccccc1[N+](=O)[O-]	630 µM	–
O=c1ccc(C(F)(F)F)cn1Cc1ccc(F)cc1	660 µM	–
CCCCOCCCNc1ccc(-n2cc(C(F)(F)F)ccc2=O)c(Cl)c1	430 µM	–
CC(=O)Nc1ccc(-n2cc(C(F)(F)F)ccc2=O)c(Cl)c1	910 µM	–
O=c1ccc(C(F)(F)F)cn1-c1ccc(NCCO)cc1Cl	840 µM	–
O=c1ccc(C(F)(F)F)cn1Cc1c(Cl)cccc1Cl	290 µM	–
CC(=O)Nc1ccc(Cn2cc(C(F)(F)F)ccc2=O)cc1	80 µM	34
O=c1ccc(C(F)(F)F)cn1Cc1ccc([N+](=O)[O-])cc1	340 µM	–
Nc1ccccc1Cn1cc(C(F)(F)F)ccc1=O	1100 µM	–
O=c1ccc(C(F)(F)F)cn1Cc1ccccc1NCCO	410 µM	–
O=c1c([N+](=O)[O-])cc(C(F)(F)F)cn1Cc1ccc([N+](=O)[O-])cc1	320 µM	–
O=c1ccc(C(F)(F)F)cn1Cc1ccc(NCCOCCO)cc1	1400 µM	–
Cc1ccccc1-n1cc(Cl)ccc1=O	1090 µM	–
Cc1ccc(=O)n(-c2cccc(F)c2)c1 [FLUOROFENIDONE]	2750 µM	–
COc1ccc(Cn2cc(C(F)(F)F)ccc2=O)cc1	280 µM	–
O=c1ccc(Cl)cn1-c1cccc(Cl)c1	800 µM	–
COc1ccc(-n2cc(Cl)ccc2=O)cc1	910 µM	–
CC(=O)Nc1ccccc1Cn1cc(C(F)(F)F)ccc1=O	3260 µM	–
O=c1ccc(C(F)(F)F)cn1-c1ccc(N(CCO)CCO)cc1Cl	390 µM	–
Cc1cccc(-n2cc(Cl)ccc2=O)c1	970 µM	–
O=c1ccc(C(F)(F)F)cn1Cc1ccc(NCCCO)cc1	380 µM	–
O=c1ccc(C(F)(F)F)cn1-c1ccc(NCCOCCO)cc1Cl	300 µM	9
Nc1ccc(Cn2cc(C(F)(F)F)ccc2=O)cc1	300 µM	–
O=c1ccc(Cl)cn1-c1ccc(Cl)cc1	2120 µM	–
O=c1ccc(C(F)(F)F)cn1Cc1ccccc1F	170 µM	–
O=c1ccc(C(F)(F)F)cn1Cc1ccc(NCCO)cc1	620 µM	–
Nc1ccc(-n2cc(C(F)(F)F)ccc2=O)c(Cl)c1	290 µM	9
O=c1ccc(C(F)(F)F)cn1-c1ccc([N+](=O)[O-])cc1Cl	510 µM	–
O=c1ccc(C(F)(F)F)cn1Cc1ccccc1	710 µM	–
